# Measurements from patent US7022484B2, “Methods for treating neuropathological states and neurogenic inflammatory states and methods for identifying compounds useful therein” (Board of Regents, The University of Texas System, priority 2000, dated 2006).
# Entries after “also recorded” stand apart in the source; their conditions may differ.
# Tested on: NMDA receptor subunit NR1
# Assay: Immunocytochemical localization of NMDA receptor subunit NR1 in spinal cord of arthritic rats
# Assay type: in vivo, rat
# Settings: Genistein 1 mM spinal pre-treatment
# From the text: Cycloheximide (100 milligrams per kilogram (mg/kg) intraperitoneal (i.p.) was used in some studies to determine if the alterations observed for the NMDA NR1 receptor subunit could be attributed to newly synthesized NR1 protein.
# Twenty-four rats in 3 separate groups were used for immunocytochemical studies. One group of rat (n=8) was a naive control. The other 2 groups (n=16) of rats received surgical placement of the microdialysis fiber placement. On the day after microdialysis fiber placement, the animals were treated spinally with either Genistein (1 mM) or vehicle (50% DMSO in aCSF) for 1.5 hours (n=8 for each group). Then the left knee joint of all sixteen rats was injected with 0.1 ml of kaolin and carrageenan.
# Animals were anesthetized and transcardially perfused with a brief warm saline rinse followed by fixative solution (4% paraformaldehyde in 0.1 M phosphate buffer, pH 7.4). The tissues were soaked overnight in 30% buffered sucrose and cut at 30 microns on a sliding microtome. For light microscopy, the tissues from animals (n=8) were permeabilized with a 50% buffered ethanol treatment. Tissue sections were then stained immunocytochemically for glutamate receptor subunit NR1 and phospho-NR1. Primary antibodies to be used for staining include anti-NMDA NR1 NMDA receptor (0.5–1 milligrams per milliliter (mg/ml)) purchased from Chemlcon Inc. (Pittsburgh, Pa.). Other neurotransmitter and receptor primary antibodies against NMDA NR2C, mGluR1, and mGluR5 were used as stain specificity controls. The primary antibodies were diluted in phosphate buffered saline (PBS, pH 7.6) with 0.1% BSA for overnight incubation on the spinal cord tissues. After washing in PBS, the tissue sections were incubated in the appropriate secondary antibody, either anti-mouse or anti-rabbit IgG (1:100, 30 minutes) and in avidin-biotin complex (ABC, 1:100, Vector Laboratories, Burlingame, Calif.). Sections were reacted with diaminobenzidine (DAB) solution (1.5 mg/ml) as the chromogen and peroxide (0.5 mg/ml) to produce a dense reaction product. To further intensify the reaction product particularly for visualization of nuclear rings, some tissues were reacted with colloidal gold conjugated IgG and reacted with a silver chloride solution to produce an intense black reaction product (Takizawa et al., J. Histochemistry & Cytochemistry, 42, 1615–1623 (1994)).
# Immunocytochemical controls included sections processed in the absence of the primary or secondary antibody or ABC reagents. The specificity of the transmitter antibodies was confirmed by appearance of a single band by Western blot. In addition to use of the C-terminus NR1 antibody from ChemIcon, an antibody directed to the N-terminus of the NR1 protein was used as control (1 mg/ml; BD PharMingen, San Diego, Calif.). […]
compound,measurement,setting,value
"O=c1c(-c2ccc(O)cc2)coc2cc(O)cc(O)c12 [Genistein, 5,7-Dihydroxy-3-(4-hydroxyphenyl)-4H-1-benzopyran-4-one; 4′,5,7-trihydroxy-isoflavone]",staining for NR1 in spinal cord,"4 hours, cycloheximide 100 mg/kg i.p.",about half that observed in arthritic rats and was not significantly increased above levels seen in normal rats; also recorded: greatly reduced expression increases for NR1 that were not significantly different from baseline
same,nuclear localization of NR1,,greatly reduced; also recorded: inhibited the shift in the pattern of NMDA NR1 protein staining
